{
  "source": "patent US11225507B2",
  "about": "“Conformation switchable antimicrobial peptides and methods of using the same” (priority 2017, dated 2022)",
  "key": {"[1]": {"test": "Circular dichroism (CD) secondary structure of polypeptides at different pH", "type": "physicochemical", "experimental": "The secondary structure of the polypeptides at different pH value was then investigated by circular dichroism (CD). […] Distortion of helical conformation was noted when the pH was adjusted back to neutral (FIG. 1C).\nThe MALLS detector was calibrated using pure toluene and can be used for the determination of the absolute molecular weights (MWs). The MWs of polymers were determined based on the dn/dc value of each polymer sample calculated offline by using the internal calibration system processed by the ASTRA V software (version 5.1.7.3, Wyatt Technology, Santa Barbara, Calif., USA). Circular dichroism (CD) measurements were carried out on a JASCO J-815 CD spectrometer. The polymer samples were prepared at concentrations of 4.4 μM. The solution was placed in a quartz cell with a path length of 0.10 cm. The zeta-potential of polypeptides was evaluated by Malvern Zetasizer. Infrared spectra were recorded on a Perkin Elmer 100 serial FTIR spectrophotometer calibrated with polystyrene film. Lyophilization was performed on a FreeZonelyophilizer (Labconco, Kansas City, Mo., USA). UV light was generated from an OmiCure S1000 UV lamp (EXFO, Mississauga, Canada)."}, "H. pylori SS1": {"test_system": "H. pylori SS1", "test": "H. pylori killing kinetics at various pHs (CFU counting, 1 h)", "type": "cell-based, Helicobacter pylori", "experimental": "H. pylori killing kinetics at various pHs. The killing kinetics of polypeptides were measured against H. pylori by counting the colony forming units (CFU) of alive bacteria with agar plating. The polypeptides at various concentrations were dissolved in the Tris-HC buffer at various pHs (pH 7.4, 4.0, 3.0). H. pylori were then collected and dispersed in the BB medium supplied with fresh urea (10 mM) and 10% FBS at different pHs (pH 7.4, 4.0, 3.0). The optical density at 600 nm of the bacteria were fixed at 0.1. The bacteria were then incubated with the polypeptides solution at corresponding pH in the incubator supplied with 10% CO2 at 37° C. Samples were taken for a series of ten-fold dilutions, and plated out in BB agar plates with 10% FBS and vancomycin (pH 7.4) after 1 h incubation. The plates were incubated for 72 h in the incubator and the bacteria were counted for CFU. Bacteria incubated with Tris-HCl buffer only at corresponding pH were served as 100% survival. Survival rate (%)=CFU of bacteria treated with polypeptides/CFU of bacteria treated with buffer×100%. The killing kinetics of antibiotics (OAC, omeprazole, amoxicillin, clarithromycin) against H. pylori were determined with a similar procedure. The antibiotics at various concentrations were dissolved in the Tris-HCl buffer at pH 7.4, or 3.0, and were then incubated with H. pylori in BB medium supplied with fresh urea (10 mM) and 10% FBS at corresponding pH in the incubator. After 1 h incubation, the bacteria were collected by centrifuge at 10,000 rcf for 5 min and washed with fresh BB medium. Samples were then taken for a series of ten-fold dilutions, and plated out in BB agar plates with 10% FBS and vancomycin. The plates were incubated for 72 h in the incubator and the bacteria were counted for CFU."}, "[2]": {"conditions": "mouse, in vivo", "description": "In vivo and ex vivo biodistribution of Cy5-PL2. Cy5-PL2 (2.6 μmol/kg), Cy5-PDL2 (2.6 μmol/kg) and PBS were administrated by oral gavage. Mice were placed on the sample stage equipped with anesthesia input and output ports, and imaged by the Bruker Xtreme In-Vivo Fluorescence Imaging System at 1 h, 2 h, 4 h, 7 h, and 24 h post injection (p.i.). The excitation filter was set at 630 nm and the emission filter was set at 700 nm. Collected images were analyzed by the Bruker molecular imaging software. Stomach, intestines, liver, lung, kidneys, heart, and spleen were harvested at 4 h or 24 h p.i. of Cy5-PL2 and imaged ex vivo using the Bruker Xtreme In-Vivo Imaging System. Ex vivo images were quantified by measuring FI at selected region of interest (ROI). All values were expressed as means±standard deviation (n=3). […] The other half of the stomach were placed into separate glass tubes containing 2 mL of lysis buffer (1% SDS, 100 10 mM Tris.HCl, pH 7.4, 1 tablet of EDTA-free protease inhibitor), homogenized, and incubated at 4° C. for 2 h. The lysates were then centrifuged at 3000 rcf for 10 min to remove the insoluble cell debris, and measured on a fluorescence spectrometer to determine the amount of Cy5 retained in the tissues. The amount of Cy5 was calculated based on the standard curve of Cy5 FI and normalized to percentage of injected dose (% I.D.) per gram tissue."}, "commensal bacteria": {"test_system": "commensal bacteria", "test": "Killing effect against commensal bacteria in vivo (16S rRNA qPCR)", "conditions": "mice, daily gavage for 3 consecutive days", "experimental": "The bacterial load was determined by quantitative real-time PCR using a protocol modified from Stefka et al., and Buffie et al. (Stefka et al. (2014) Commensal bacteria protect against food allergen sensitization. Proc Natl Acad Sci USA 111:13145-13150; Buffie et al. (2012) Profound alterations of intestinal microbiota following a single dose of clindamycin results in sustained susceptibility to Clostridium difficile-induced colitis. Infect Immun 80:62-73). Fecal DNA was extracted as for sequencing, and bacterial load was quantified against a standard curve derived from apCR4TOPO-TA vector containing a nearly full-length copy of the 16S rRNA gene from a member of Porphyromonadaceae. Bacterial DNA was amplified with universal primers 8F and 338R using the iQ SYBR greensupermix (Bio-RadLifeScience) and the StepOne Plus system (AppliedBiosystems). The results were normalized to ileal content/fecal weight."}, "[3]": {"test": "Toxicity of PL2 in vivo after oral gavage", "set-up": "species or system mice", "conditions": "mouse", "text": "Toxicity of PL2 in vivo. […] Mice were sacrificed on day 5, and the blood samples were collected for the analysis of alanine aminotransferase (ALT), aspartate aminotransferase (AST), creatinine, urea nitrogen, sodium ion and potassium ion levels. The colonic segment, stomach, liver, small intestine, kidney and feces of each mouse was gathered and homogenized with cold PBS (pH7.4). The stomachs were used to determine the expression of caspase 3 and caspase 8 using Caspase 3 Assay Kit (Sigma) and Caspase 8/FLICE Colorimetric Kit (Life technology), respectively. The colonic segment and feces were used to extract bacterial DNA. The stomach, small intestine, liver, and kidney were kept in formalin for H&E staining. The stomachs were also kept in formalin for terminal deoxynucleotidyl transferase dUTP nick end labeling (TUNEL) assay (S7100|ApopTag® Peroxidase In Situ Apoptosis Detection Kit). […] The inflammation and injury of stomach were scored by Dr. Liu in a blind manner based on the H&E staining. Inflammation was graded on a 0-3 ordinal scale based on the Sydney System as follows: chronic inflammation (mononuclear cell infiltration independent of lymphoid follicles); grade 0, no inflammation; grade 1, mild inflammation (slight increase in mononuclear cells); grade 2, moderate inflammation (dense but focal mononuclear inflammatory cells); and grade 3, severe inflammation (dense and diffuse mononuclear inflammatory cells). The appearance of the mucosa was graded as follows: 0, normal; 1, spotty changes in cellular staining characteristics of some surface epithelial cells in an otherwise normal mucosa (mild injury); 2, more generalized changes and/or disruption of the surface epithelium in several areas (moderate injury); 3, extensive mucosal destruction (severe injury)."}},
  "note": "Read-outs that look alike come from different tables or passages of the source.",
  "data": [
    {"substance": "(PGA)18-r-(PHLG-MHH)20 [PL2]", "values": [
      {"measurement": "secondary structure (CD)", "setting": "[1]; pH≤4.2", "value": "typical helical conformation"},
      {"measurement": "secondary structure (CD)", "setting": "[1]; pH≥5.1", "value": "random coiled conformation"},
      {"measurement": "bactericidal activity against SS1", "setting": "H. pylori SS1; pH 3.0, 1 h incubation", "value": "higher bactericidal activity"},
      {"measurement": "bactericidal activity against SS1", "setting": "H. pylori SS1; pH 4.0, 1 h incubation", "value": "notable bacteria killing"},
      {"measurement": "bactericidal activity against SS1", "setting": "H. pylori SS1; pH 7.4, 1 h incubation", "value": "no bactericidal activity"},
      {"measurement": "gastric retention", "setting": "[2]", "value": "~6", "unit": "%"},
      {"measurement": "gastric retention", "setting": "[2]; po, 2.6 umol/kg, 4 h", "value": "~40", "unit": "% ID/g"},
      {"measurement": "killing of commensal bacteria in the feces", "setting": "commensal bacteria", "value": "did not cause undesired killing of the commensal bacteria"},
      {"measurement": "killing of commensal bacteria in the ileal contents", "setting": "commensal bacteria", "value": "did not cause undesired killing of the commensal bacteria"},
      {"measurement": "ALT", "setting": "[3]", "value": "37.3 ± 0.5", "unit": "U/L"},
      {"measurement": "AST", "setting": "[3]", "value": "120.3 ± 17.9", "unit": "U/L"},
      {"measurement": "Creatinine", "setting": "[3]", "value": "8.7 ± 0.9", "unit": "µM"},
      {"measurement": "Potassium ion", "setting": "[3]", "value": "8.1 ± 0.2", "unit": "mM"},
      {"measurement": "Sodium ion", "setting": "[3]", "value": "149.4 ± 1.6", "unit": "mM"},
      {"measurement": "Urea nitrogen", "setting": "[3]", "value": "6.8 ± 0.6", "unit": "mM"},
      {"measurement": "histology of intestines, liver, and kidney (H&E staining)", "setting": "[3]", "value": "barely detectable histological abnormality"}
    ]}
  ]
}
